The values below come from patent publication US8906826B2, “Herbicidal compositions comprising 4-amino-3-chloro-5-fluoro-6-(4-chloro-2-fluoro-3-methoxyphenyl) pyridine-2-carboxylic acid or a derivative thereof and imidazolinones” (Dow AgroSciences, LLC, priority 2012, dated 2014).

For test [1], the system named is CENMA. As to the kind of experiment: Postemergence herbicidal activity in forage crops (Example IV). The test is classed as in vivo, Centaurea biebersteinii DC. Conditions: after approximately 21 days. As for the experimental part: Seeds or root cuttings of the desired test plant species were planted in Sun Gro MetroMix® 306 planting mixture, which typically has a pH of about 6.0 to about 6.8 and an organic matter content of about 30 percent, in plastic pots with a surface area of 126.6 square centimeters (cm^2). When required to ensure good germination and healthy plants, a fungicide treatment and/or other chemical or physical treatment was applied. The plants were grown for 14-60 days in a greenhouse with an approximate 14 hour photoperiod which was maintained at about 28° C. during the day and about 24° C. during the night. Nutrients and water were added on a regular basis and supplemental lighting was provided with overhead metal halide 1000-Watt lamps as necessary. The plants were employed for testing when they reached the BBCH13 to BBCH23 leaf stage.
Treatments consisted of the benzyl ester of 4-amino-3-chloro-5-fluoro-6-(4-chloro-2-fluoro-3-methoxy-phenyl)pyridine-2-carboxylic acid (Compound A), formulated as a SC (suspension concentrate), and a second herbicide alone and in combination.
A measured aliquot of Compound A was placed in a 25 milliliter (mL) glass vial and diluted in a volume of 1.25% (v/v) Agri-Dex® crop oil concentrate to obtain stock solutions. Compound requirements are based upon a 12 mL application volume at a rate of 187 liters per hectare (L/ha). Spray solutions of the second cereal herbicide and experimental compound mixtures were prepared by adding the stock solutions to the appropriate amount of dilution solution to form 12 mL spray solution with active ingredients in two- and three-way combinations. Formulated compounds were applied to the plant material with an overhead Mandel track sprayer equipped with an 8002E nozzle calibrated to deliver 187 L/ha over an application area of 0.503 square meters (m^2) at a spray height of 18 inches (46 cm) above average plant canopy. Control plants were sprayed in the same manner with the solvent blank.
The treated plants and control plants were placed in a greenhouse as described above and watered by sub-irrigation to prevent wash-off of the test compounds. After approximately 21 days, the condition of the test plants, as compared with that of the control plants, was determined visually and scored on a scale of 0 to 100 percent where 0 corresponds to no injury and 100 corresponds to complete kill.
Colby's equation was used to determine the herbicidal effects expected from the mixtures (Colby, S. R. 1967. Calculation of the synergistic and antagonistic response of herbicide combinations. Weeds 15:20-22.).
The following equation was used to calculate the expected activity of mixtures containing two active ingredients, A and B: Expected=A+B−(A×B/100)

In test [2] the test system is LEFCH. As to the kind of experiment: In-water applied, transplanted paddy rice weeds (Example II). Format: in vivo, Leptochloa chinensis (L.) Nees. As for the experimental part:
Weed seeds or nutlets of the desired test plant species were planted in puddled soil (mud) prepared by mixing a shredded, non-sterilized mineral soil (50.5 percent silt, 25.5 percent clay, and 24 percent sand, with a pH of about 7.6 and an organic matter content of about 2.9 percent) and water at a 1:1 volumetric ratio. The prepared mud was dispensed in 365 mL aliquots into 16-ounce (oz.) non-perforated plastic pots with a surface area of 86.59 square centimeters (cm^2) leaving a headspace of 3 centimeters (cm) in each pot. Mud was allowed to dry overnight prior to planting or transplanting. Rice seeds were planted in Sun Gro MetroMix® 306 planting mixture, which typically has a pH of about 6.0 to about 6.8 and an organic matter content of about 30 percent, in plastic plug trays. Seedlings at the second or third leaf stage of growth were transplanted into 860 mL of mud contained in 32-oz. non-perforated plastic pots with a surface area of 86.59 cm^2 4 days prior to herbicide application. The paddy was created by filling the headspace of the pots with 2.5 to 3 cm of water. When required to ensure good germination and healthy plants, a fungicide treatment and/or other chemical or physical treatment was applied. The plants were grown for 4-22 days in a greenhouse with an approximate 14 h photoperiod which was maintained at about 29° C. during the day and about 26° C. during the night. Nutrients were added as Osmocote® (19:6:12, N:P:K+minor nutrients) at 2 g per 16-oz. pot and 4 g per 32-oz. pot. Water was added on a regular basis to maintain the paddy flood, and supplemental lighting was provided with overhead metal halide 1000-Watt lamps as necessary. The plants were employed for testing when they reached the first through fourth true leaf stage.
Treatments consisted of the acid or esters of 4-amino-3-chloro-5-fluoro-6-(4-chloro-2-fluoro-3-methoxy-phenyl)pyridine-2-carboxylic acid (compound A) each formulated as an SC and various herbicidal components alone and in combination. Forms of compound A were applied on an acid equivalent basis. […]
Treatment requirements for each compound or herbicidal component were calculated based upon the rates being tested, the concentration of active ingredient or acid equivalent in the formulation, an application volume of 2 mL per component per pot, and an application area of 86.59 cm^2 per pot.
For formulated compounds, a measured amount was placed in an individual 100 or 200 mL glass vial and was dissolved in a volume of 1.25% (v/v) Agri-Dex® crop oil concentrate to obtain application solutions. […]

For `Cc1cnc(C2=NC(C)(C(C)C)C(=O)N2)c(C(=O)O)c1.N` (racemic) [Imazapic ammonium, ammonium (±)-2-[4,5-dihydro-4-methyl-4-(1-methylethyl)-5-oxo-1H-imidazol-2-yl]-5-methyl-3-pyridinecarboxylic acid], the “CENMA Obs” value in test [1] (Imazapic ammonium 8.75 gae/ha) and in test [1] (Imazapic ammonium 17.5 gae/ha) was 0% each time.
For the molecule `COc1c(Cl)ccc(-c2nc(C(=O)OCc3ccccc3)c(Cl)c(N)c2F)c1F` [Compound A Benzyl Ester, benzyl ester of 4-amino-3-chloro-5-fluoro-6-(4-chloro-2-fluoro-3-methoxy-phenyl)pyridine-2-carboxylic acid], the “Visual Weed Control (%) - 25 DAA LEFCH Obs” value in test [2] (Compound A Benzyl Ester 8.75 gae/ha) is on record as 0%. Further, the “CENMA Obs” value in test [1] (Compound A Benzyl Ester 4.4 gae/ha) was 70%; in test [1] (Compound A Benzyl Ester 8.8 gae/ha), 85%; in test [1] (Compound A Benzyl Ester 17.5 gae/ha), 95%.
Take `CCc1cnc(C2=NC(C)(C(C)C)C(=O)N2)c(C(=O)O)c1.N` (racemic) [Imazethapyr ammonium, ammonium (±)-2-[4,5-dihydro-4-methyl-4-(1-methylethyl)-5-oxo-1H-imidazol-2-yl]-5-ethyl-3-pyridinecarboxylate]: the “Visual Weed Control (%) - 25 DAA LEFCH Obs” value in test [2] (Imazethapyr ammonium 8.75 gae/ha) came to 0%; in test [2] (Imazethapyr ammonium 17.5 gae/ha) it was 0%; in test [2] (Imazethapyr ammonium 35 gae/ha), 95%.
